Data as given in US11541050B2, “Pyrimidine derivatives for the treatment of viral infections” (JANSSEN SCIENCES IRELAND UC, priority 2011, dated 2023).

What was measured:
Format in all cases: cell-based
Set-up in all cases: unit not given here
[1] = system: human TLR8 mutant sequence comprising a deletion in the second leucine-rich repeat; test: TLR8 cellular NFκB-luc reporter assay, mutant TLR8 with deletion in the second leucine-rich repeat; conditions: lowest effective concentration
Method: (§1) The ability of compounds to activate human TLR7 and/or TLR8 was assessed in a cellular reporter assay using HEK293 cells transiently transfected with a TLR7 or TLR8 expression vector and NFκB-luc reporter construct. In one instance the TLR expression construct expresses the respective wild type sequence or a mutant sequence comprising a deletion in the second leucine-rich repeat of the TLR.
(§2) Briefly, HEK293 cells were grown in culture medium (DMEM supplemented with 10% FCS and 2 mM Glutamine). For transfection of cells in 10 cm dishes, cells were detached with Trypsin-EDTA, transfected with a mix of CMV-TLR7 or TLR8 plasmid (750 ng), NFκB-luc plasmid (375 ng) and a transfection reagent and incubated for 48 hours at 37° C. in a humidified 5% CO2 atmosphere. […] Thirty microliters of cells were then dispensed into each well in 384-well plates, where 10 μL of compound in 4% DMSO was already present. Following 6 hours incubation at 37° C., 5% CO2, the luciferase activity was determined by adding 15 μl of Steady Lite Plus substrate (Perkin Elmer) to each well and readout performed on a ViewLux ultraHTS microplate imager (Perkin Elmer). Dose response curves were generated from measurements performed in quadruplicates.

[2] = system: human TLR7 mutant sequence comprising a deletion in the second leucine-rich repeat; test: TLR7 cellular NFκB-luc reporter assay, mutant TLR7 with deletion in the second leucine-rich repeat; conditions: lowest effective concentration
Method: as §1, §2

[3] = target: T1, human TLR7 (wild type sequence) (Homo sapiens, UniProt Q9NYK1); test: TLR7 cellular NFκB-luc reporter assay, wild type TLR7; conditions: lowest effective concentration, wild type TLR7
T1 construct: expressed in transfected cells; host or cells: HEK293
T1 sequence (Q9NYK1 27-1049): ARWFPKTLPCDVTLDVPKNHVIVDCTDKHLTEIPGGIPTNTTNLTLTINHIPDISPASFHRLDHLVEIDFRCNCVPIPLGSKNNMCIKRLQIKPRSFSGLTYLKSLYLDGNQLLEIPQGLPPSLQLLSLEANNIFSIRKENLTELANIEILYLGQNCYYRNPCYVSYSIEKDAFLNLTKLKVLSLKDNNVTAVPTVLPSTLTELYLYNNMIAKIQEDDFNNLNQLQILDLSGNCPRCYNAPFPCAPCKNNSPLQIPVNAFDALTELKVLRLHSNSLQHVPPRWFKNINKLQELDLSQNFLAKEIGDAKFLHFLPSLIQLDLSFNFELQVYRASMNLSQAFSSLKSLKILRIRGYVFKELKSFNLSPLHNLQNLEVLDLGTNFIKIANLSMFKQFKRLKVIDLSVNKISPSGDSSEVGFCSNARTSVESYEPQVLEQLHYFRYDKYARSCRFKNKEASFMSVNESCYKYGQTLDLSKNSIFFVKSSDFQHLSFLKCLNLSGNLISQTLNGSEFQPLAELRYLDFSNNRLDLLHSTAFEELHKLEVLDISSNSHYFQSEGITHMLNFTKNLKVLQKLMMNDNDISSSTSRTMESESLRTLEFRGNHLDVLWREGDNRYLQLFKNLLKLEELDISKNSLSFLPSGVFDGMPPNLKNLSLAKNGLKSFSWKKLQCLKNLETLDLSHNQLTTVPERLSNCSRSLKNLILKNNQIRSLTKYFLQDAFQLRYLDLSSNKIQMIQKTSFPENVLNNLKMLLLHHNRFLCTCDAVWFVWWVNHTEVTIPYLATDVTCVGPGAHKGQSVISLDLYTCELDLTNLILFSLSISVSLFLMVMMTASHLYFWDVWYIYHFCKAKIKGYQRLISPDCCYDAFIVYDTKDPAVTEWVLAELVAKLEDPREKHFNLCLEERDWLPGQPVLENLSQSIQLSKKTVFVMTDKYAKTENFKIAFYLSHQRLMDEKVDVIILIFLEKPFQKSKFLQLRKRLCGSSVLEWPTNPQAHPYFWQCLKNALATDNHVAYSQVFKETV
Outline: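 First, HEK293 cells were co-transfected with TLR7 or TLR8 (native or LRR2-deletion) and NFκB-luc and cultured 48 h. Next, cells were incubated with compound for 6 h at 37 °C. Finally, luciferase was read; LEC came from dose-response curves run in quadruplicate.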

Structure (SMILES) | TLR8-dIRR2_LEC [1] | TLR7-dIRR2_LEC [2] | TLR7-wt_LEC [3]
CCCC[C@@H](CCO)Nc1nc(N)ncc1OCc1cncn1[C@@H](C)c1ccccc1 [Compound 247] | 3.200 | 8.240 | 12.390
CCCC[C@@H](CCO)Nc1nc(N)ncc1OCc1ncc(C)c(O)c1C [Compound 242] | 0.006 | 3.010 | 5.400
CCC[C@@H](CO)Nc1nc(N)ncc1OCc1cn2ccccc2n1 [Compound 215] | 0.029 | 0.300 | 0.171
CCCC[C@@H](CCO)Nc1nc(N)ncc1OCc1cc(C)n(C)n1 [Compound 237] | 0.051 | 1.830 | 0.156
CCCC[C@@H](CCO)Nc1nc(N)ncc1OCc1nnn[nH]1 [Compound 297] | 2.540 | >25 | 2.810
CCC[C@@H](CCO)Nc1cc(O[C@@H]2CCc3c(Cl)ccnc32)nc(N)n1 [Compound 283] | 4.350 | 8.320 | 17.180
CCCCNc1nc(N)ncc1OCCCC(=O)OC [Compound 220] | 1.720 | 1.450 | 1.940
CCCC[C@@H](CCO)Nc1nc(N)ncc1OCc1ncccc1OC [Compound 241] | 0.004 | 0.304 | 0.008
CCCC[C@@H](CCO)Nc1nc(N)ncc1OCc1c[nH]nn1 [Compound 298] | 0.058 | 2.840 | 0.394
CCC[C@@H](CCO)Nc1nc(N)ncc1OCCCc1ccc2c(c1)OCO2 [Compound 238] | 0.091 | 1.920 | 0.234
CCC[C@@H](CCO)Nc1nc(N)ncc1OCc1cc(C)n(C)n1 [Compound 246] | 0.048 | 1.150 | 0.157
CCC[C@@H](CCO)Nc1nc(N)ncc1O[C@H]1CCc2c(Cl)ccnc21 [Compound 284] | 2.150 | 10.300 | 9.910
CCCCNc1nc(N)ncc1OCC1CCOC1 (stereo not drawn) [Compound 235] | 1.890 | 10.410 | >25
CCCC[C@@H](CCO)Nc1nc(N)ncc1OCc1nccc(OC)c1OC [Compound 245] | 0.011 | 0.507 | 0.040
CCCC[C@@H](CO)Nc1nc(N)ncc1OCc1nccc2ccccc12 [Compound 216] | 0.002 | 0.111 | 0.008
CCC[C@H](C)Nc1nc(N)ncc1OCc1nccc(OC)c1OC [Compound 263] | 0.056 | 0.159 | 0.049
CCC[C@@H](C)Nc1nc(N)ncc1OCc1nccc2ccccc12 [Compound 219] | 0.029 | 1.640 | 0.125
CCCC(C)Nc1nc(N)ncc1OCCOC (stereo not drawn) [Compound 267] | 1.710 | 0.719 | 4.880
CCC[C@@H](CO)Nc1nc(N)ncc1OCc1ccccn1 [Compound 239] | 0.145 | 0.247 | 0.464
CCCC[C@@H](CO)Nc1nc(N)ncc1OCc1cccc(C(=O)O)n1 [Compound 259] | 1.250 | 3.150 | 6.980
